Results from patent publication US20220233688A1, “ADJUVANTS FOR IMMUNOGENIC COMPOSITIONS AND METHODS OF USE THEREOF” (UNIVERSITY OF MARYLAND, BALTIMORE, priority 2019, published 2022).
“Also recorded” adds a separate entry of the source.

Assays:
[1] = reported in literature (21); cited from earlier work
[2] = system: Cal/09 rHA; set-up: species or system BALB/c mice; conditions: mouse, in vivo
[3] = system: A/Netherlands/602/2009 (H1N1) (NL/09) virus; format: in vivo, BALB/c mice; conditions: 7 days
[4] = system: RSV A2; format: in vivo, Balb/c mice; conditions: IM days 0 and 21, RSV A2 challenge, lung four days after challenge (day 39)
[5] = system: A/Netherlands/602/2009 (H1N1) (NL/09) virus; assay: Lung tissue histology inflammation scoring after NL/09 challenge; format: in vivo, BALB/c mice; conditions: 0.04 ug rHA alone or with 100 ug Alum or 50 ug PHAD/BECC, prime-boost
Experimental: Staining of lung tissue was performed by the UMB EM and Histology Laboratory to assess any histological signs and potential clearing of viral infection. 4% Paraformaldehyde-fixed (Sigma-Aldrich, St Louis, Mo.) lungs were embedded in paraffin and sectioned before staining with haematoxylin and eosin (H&E). Representative slides were selected to most accurately portray the condition of the lungs within each group of vaccinated mice. Pathology scoring was performed by Dr (LT) Robert Kitz, Anatomic Pathologist, Walter Reed National Military Medical Center, Bethesda, Md. Lung sections from each mouse were scored based on overall inflammation using the following scoring parameters (group scores averaged): 0=no inflammation, 1=scant inflammation (<5% multifocal or one small focus); 2=prominent inflammation, <25% parenchyma; 3=prominent inflammation, 25-50% parenchyma; 4=diffuse inflammation, 50-75% parenchyma; 5=diffuse inflammation, >75% parenchyma.

[6] = system: HPV16-L1 VLPs; set-up: species or system BALB/c mice; conditions: mouse, in vivo

Molecule | particle size of aqueous formulation [1] | Day 28 total serum IgG antibody titer [2] | HA-specific IgG2a titer [2] | average weight loss [3] | protection by lung viral titers [4] | histological inflammation scoring of lung [5] | L1 ELISA Ab levels [6]
CCCCCCCCCCCCCC(=O)O[C@H](CCCCCCCCCCC)CC(=O)O[C@@H]1[C@@H](NC(=O)C[C@H](CCCCCCCCCCC)OC(=O)CCCCCCCCCCCCC)[C@H](OC[C@H]2O[C@H](O)[C@H](NC(=O)C[C@H](O)CCCCCCCCCCC)[C@@H](OC(=O)C[C@H](O)CCCCCCCCCCC)[C@@H]2O)O[C@H](CO)[C@H]1OP(=O)(O)O [GLA, glucopyranosyl lipid-A] | 90 nm |  |  |  |  |  | 
phosphorylated hexa-acyl disaccharide [PHAD] |  | significant difference between the HA alone and PHAD groups; also recorded: somewhat higher | significantly higher than sham | 10% | full protection in the lower respiratory tract | low inflammation scores with minimal bronchiolar or periarterial inflammation | greater L1 ELISA Ab levels compared to alum alone
